Measurements taken from patent US8642656B2, “Calixarene-based peptide conformation mimetics, methods of use, and methods of making” (priority 2004, dated 2014).
Read-outs that look alike come from different tables or passages of the source.

Experiments:
[1] = system: chorioallantoic membrane (CAM) vasculature; assay: Chorioallantoic membrane (CAM) assay; assay type: in vivo, chicken; conditions: 25 μM daily, day 10 to 13
Procedure: Fertilized Lohman-selected white leghorn eggs were incubated for 3 days at 37° C. and 55% relative humidity and rotated once every hour. On day 3 a rectangular window (1 cm×2 cm) was made in the eggshell. The window was covered with tape to prevent dehydration. The window allowed undisturbed observation of the developing vasculature of the CAM. On day 7 a silicon ring (10 mm diameter) was placed on the CAM to allow local drug administration within the ring. Compounds were applied daily in aliquots of 65 μl (25 μM) from day 10 to day 13. On day 14 the CAMs were photographed.

[2] = Hematocrit levels, study with B16 tumors in immune competent mice; assay type: in vivo; conditions: vehicle 51±1.4
Procedure: As an indirect measurement of general toxicity, body weights of mice were monitored twice weekly, using a digital balance (Ohaus Florham, N.J.). To determine hematocrit levels, blood samples were extracted by tail vein bleedings one day after terminating treatment, and blood was collected in heparinized micro-hematocrit capillary lubes (Fisher Pittsburgh, Pa.). Samples were spun down for 10 minutes in a micro-hematocrit centrifuge (Clay-Adams; NY), and the amount of hematocrit was determined using an international microcapillary reader (IEC; Needham, Mass.).

LPS from S. typhimurium = assay: LPS neutralization assay (Limulus amoebocyte lysate, QCL-1000); assay type: biochemical, Salmonella typhimurium; conditions: read-out: IC50 values (μM) for LPS binding, Salmonella
How it was run: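 In vitro quantitative LAL test: compounds inhibiting activation by 0.04 units LPS reduce yellow pNA formation (405-410 nm). 0.04 units equals 0.01 ng P. aeruginosa or E. coli 0111:B4 LPS and 0.03 ng S. typhimurium or S. marcascens LPS. Sigmoidal fits yield IC50.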

MA148 tumor = assay: TUNEL staining for total cell apoptosis, MA148 tumors; assay type: in vivo, mice; conditions: mean ± standard error, 20 images
Procedure: To assess the extent of total cell apoptosis, tumor tissue sections were stained by using the TUNEL (terminal deoxyribonucleotidyl transferase-mediated dUTP-nick-end labeling) assay, which was performed according to the manufacturer's instructions (In situ cell death detection kit, fluorescein; TUNEL, Roche). After 1-hour incubation at room temperature, slides were washed with PBS and immediately imaged using an Olympus BX-60 fluorescence microscope at 200× magnification.

MA148 tumor vessels = assay: Histological analysis of microvessel density, anti-CD31 staining, MA148 tumors; assay type: in vivo, mice; conditions: mean ± standard error, 20 images
Procedure: Immunohistochemistry was used to assess microvessel density and the extent of total cell apoptosis. Approximately, tumors of the same size and with no apparent necrosis were selected for processing. On the last day of treatment mice were sacrificed and tumors were excised. Tumor tissue was embedded in tissue freezing medium (Miles Inc, Elkart, Ind.) and shock frozen in liquid nitrogen. Sections of tissue (10 μm thickness) were prepared for immunohistochemical analysis. For this, tissue sections were brought to room temperature, air dried overnight, and then fixed in acetone for 10 minutes. Slides were allowed to air dry for at least 30 minutes and were washed three limes for 5 minutes each in phosphate-buffered saline (PBS, pH 7.4). Samples were then blocked with PBS containing 0.1% bovine serum albumin and 3% human serum albumin for at least 30 minutes at room temperature in a humidified box. Samples were subsequently incubated with phycoerytrin (PE)-conjugated monoclonal antibody to CD31 (PECAM-1) in a 1:50 dilution (Pharmigen, San Diego, Calif.) to stain for microvessel density.
Digital images were stored and processed using Adobe Photoshop (Adobe Inc., Mountain View Calif.). Quantification of microvessel density, were determined as described previously (Dings et al., Cancer Res 63, 382-385 (2003)). Statistical analysis was performed using the Student's t-test.

Compound	angiogenesis inhibition in CAM assay (in words) [1]	Hematocrit levels ±SD [2]	IC50 (LPS from S. typhimurium; Table 3, errors estimated ±30%) [µM]	Apoptosis (MA148 tumor; MA148, 2.7 mg/kg) [pixel counts per image]	Apoptosis (MA148 tumor; MA148, 10 mg/kg) [pixel counts per image]	Branch Points (MA148 tumor vessels; MA148, 2.7 mg/kg) [pixel counts per image]	End Points (MA148 tumor vessels; MA148, 2.7 mg/kg) [pixel counts per image]	Vessel Density (MA148 tumor vessels; MA148, 2.7 mg/kg) [pixel counts per image]	Vessel Length (MA148 tumor vessels; MA148, 2.7 mg/kg) [pixel counts per image]	Branch Points (MA148 tumor vessels; MA148, 10 mg/kg) [pixel counts per image]	End Points (MA148 tumor vessels; MA148, 10 mg/kg) [pixel counts per image]	Vessel Density (MA148 tumor vessels; MA148, 10 mg/kg) [pixel counts per image]	Vessel Length (MA148 tumor vessels; MA148, 10 mg/kg) [pixel counts per image]	IC50 (LPS from S. typhimurium; Table 2) [µM]	Apoptosis (MA148 tumor; MA148, 2.4 mg/kg) [pixel counts per image]	Branch Points (MA148 tumor vessels; MA148, 2.4 mg/kg) [pixel counts per image]	End Points (MA148 tumor vessels; MA148, 2.4 mg/kg) [pixel counts per image]	Vessel Density (MA148 tumor vessels; MA148, 2.4 mg/kg) [pixel counts per image]	Vessel Length (MA148 tumor vessels; MA148, 2.4 mg/kg) [pixel counts per image]
5,11,17,23-Tetra-tert-butyl-25,27-bis(2-guanidinoethoxy)-26,28-dihydroxy calix[4]arene trifluoroacetic acid salt [Compound 27]	angiogenesis is inhibited	49±1.4 percentage red blood cells	4.4	2418 ± 72	2333 ± 173	1.1 ± 0.3	32.7 ± 6.0	6046 ± 533	4.2 ± 0.6	2.3 ± 0.6	14.7 ± 2.2	7402 ± 763	5.0 ± 0.7	–	–	–	–	–	–
CN(C)CCNC(=O)COc1c2cccc1Cc1cccc(c1OCC(=O)NCCN(C)C)Cc1cccc(c1OCC(=O)NCCN(C)C)Cc1cccc(c1OCC(=O)NCCN(C)C)C2 [Compound 40]	angiogenesis is inhibited	53±0 percentage red blood cells	> 5	–	2323 ± 171	–	–	–	–	1.0 ± 0.2	23.0 ± 2.9	5112 ± 439	3.3 ± 0.5	> 5	2919 ± 144	1.6 ± 0.3	15.7 ± 2.1	7148 ± 844	5.3 ± 0.7
